# Assay results taken from patent US20050031604A1, “Isolation and purification procedure of vasopeptidase peptide inhibitors” (priority 2002, published 2005).
# Non-standard residues stand in square brackets, D forms with d. Residues, ends and D or L forms follow the SMILES beside them. pGlu = O=C1CC[C@@H](C(=O)O)N1
# Experiments:
# [1] = target: T1, N site of the ACE (human angiotensin converting enzyme mutant with only the N-terminal active site functional) (Homo sapiens, UniProt P12821, H988K/H992K); assay: Enzymatic assay of inhibition of the N-site of recombinant ACE; format: biochemical; settings: pentapeptide, range stated in words
# T1 construct: The two ACE mutants were expressed as full-length proteins; made in house
# Description: (§1) The wild-type human angiotensin converting enzyme (ACE) and two mutants, containing only one functional active site, were obtained through stable transfection of chinese hamster ovary cells with the ACE encoding cDNA. The two ACE mutants were expressed as full-length proteins, presenting one of the catalytic sites, N- or C-terminal, inactivated by substitution of the zinc binding histidine residues by lysine residues.
# (§2) The enzymatic assays were carried out at 25° C. with the substrate Mca-Ala-Ser-Asp-Lys-DpaOH, in a 50 mM Hepes buffer, pH 6.8, containing 200 mM NaCl and 10 μM ZnCl2. The reactions were continuously monitored by determining the raise in fluorescence at 390 nm emission wave length, and excitation at 340 nm, caused by the cleavage of the substrate (S=Km, 40 μM) by ACE, in a fluorimeter Fluorolite 10000 (Dynatech). The bradykinin potentiating peptides (BPPs) (inhibitors, were pre-incubated with the enzyme 90 min before the addition of the substrate.
# [2] = target: T2, C site of the ACE (human angiotensin converting enzyme mutant with only the C-terminal active site functional) (Homo sapiens, UniProt P12821, H390K/H394K); assay: Enzymatic assay of inhibition of the C-site of recombinant ACE; format: biochemical
# T2 construct: The two ACE mutants were expressed as full-length proteins; made in house
# Description: as §1, §2
# NEP = NEP (Homo sapiens, UniProt P08473); assay: Inhibition of NEP; format: biochemical
# [3] = test system: rat arterial blood pressure; assay: Potentiation of the hypotensive effect of bradykinin in rats; format: in vivo; settings: concentrations of 300 nM
# Description: The hypotensive potentiating activity effect of bradykinin was tested in normotensive and hypertensive male and female Wistar rats, anesthetized with ethylic ether; a cannulae was introduced in the femoral vein for drug administration and in the femoral artery for blood pressure recording. A Gould polygraph was used coupled to a Statham Gould physiological transducer. The arterial pressure variation values were obtained by integration of the areas delimited by the pressure base line, and by comparing them with the values obtained in the control experiment. Toxin effect tests were carried out in normotensive and hypertensive rats by intra-vital microscopy using the mesenteric circulation. The animals were anesthetized, and their body temperature maintained by a heated plate, while the mesentery was trans-illuminated and observed through lenses coupled to a television camera. The vase diameters of these animals were measured with a micrometric screw. Tested substances were administered by a constant flow peristaltic pump or injected in bolus.
# Wistar male rats with a body weight between 180 and 220 g were anesthetized with sodic pentabarbital (Hypnol® Cristalia, 50 mg/kg of body weight, intraperitoneally), while the body temperature was maintained between 36.5° C. and 37° C. by a heated plate. […]
# [4] = test system: isolated guinea pig ileum; assay: Potentiation of the contractile activity of bradykinin on isolated guinea pig ileum
# Description: The potentiating activity of the pools of isolated peptides was tested on the contractile activity of bradykinin on smooth muscle, measured using a preparation of isolated guinea pig ileum. Female guinea pigs with a body weight between 160 and 180 g were used. Before starting the assays, the ileum was kept in TYRODE solution at 37° C. for 30 min. One of the ends of the isolated ileum segment, measuring 1.5 to 2.0 cm, was tied to a semi-ring located at the bottom of a glass container with a capacity of 5 mL, containing the TYRODE physiological solution at 37° C. under constant oxygen bubbling through a capillary. The other extremity of the ileum segment was tied to a previously calibrated registering arm. The tension on the arm was of 1 g, and the ileum contractions were recorded by an REC101 recorder (Pharmacia Biotech).
# In order to determine the bradykinin potentiating effect of the samples, a log-dose curve of the effect of bradykinin on the ileum was plotted. Bradykinin activity was determined by measuring the contractions of the isolated guinea pig ileum, and the potentiating activity was expressed as a function of the increase in tissue response to a standard dose of bradykinin.
# Pools and fractions were assayed individually and were added 30 seconds before the addition of a simple dose of bradykinin. […]
# T2 sequence (P12821 30-1306 H390K/H394K): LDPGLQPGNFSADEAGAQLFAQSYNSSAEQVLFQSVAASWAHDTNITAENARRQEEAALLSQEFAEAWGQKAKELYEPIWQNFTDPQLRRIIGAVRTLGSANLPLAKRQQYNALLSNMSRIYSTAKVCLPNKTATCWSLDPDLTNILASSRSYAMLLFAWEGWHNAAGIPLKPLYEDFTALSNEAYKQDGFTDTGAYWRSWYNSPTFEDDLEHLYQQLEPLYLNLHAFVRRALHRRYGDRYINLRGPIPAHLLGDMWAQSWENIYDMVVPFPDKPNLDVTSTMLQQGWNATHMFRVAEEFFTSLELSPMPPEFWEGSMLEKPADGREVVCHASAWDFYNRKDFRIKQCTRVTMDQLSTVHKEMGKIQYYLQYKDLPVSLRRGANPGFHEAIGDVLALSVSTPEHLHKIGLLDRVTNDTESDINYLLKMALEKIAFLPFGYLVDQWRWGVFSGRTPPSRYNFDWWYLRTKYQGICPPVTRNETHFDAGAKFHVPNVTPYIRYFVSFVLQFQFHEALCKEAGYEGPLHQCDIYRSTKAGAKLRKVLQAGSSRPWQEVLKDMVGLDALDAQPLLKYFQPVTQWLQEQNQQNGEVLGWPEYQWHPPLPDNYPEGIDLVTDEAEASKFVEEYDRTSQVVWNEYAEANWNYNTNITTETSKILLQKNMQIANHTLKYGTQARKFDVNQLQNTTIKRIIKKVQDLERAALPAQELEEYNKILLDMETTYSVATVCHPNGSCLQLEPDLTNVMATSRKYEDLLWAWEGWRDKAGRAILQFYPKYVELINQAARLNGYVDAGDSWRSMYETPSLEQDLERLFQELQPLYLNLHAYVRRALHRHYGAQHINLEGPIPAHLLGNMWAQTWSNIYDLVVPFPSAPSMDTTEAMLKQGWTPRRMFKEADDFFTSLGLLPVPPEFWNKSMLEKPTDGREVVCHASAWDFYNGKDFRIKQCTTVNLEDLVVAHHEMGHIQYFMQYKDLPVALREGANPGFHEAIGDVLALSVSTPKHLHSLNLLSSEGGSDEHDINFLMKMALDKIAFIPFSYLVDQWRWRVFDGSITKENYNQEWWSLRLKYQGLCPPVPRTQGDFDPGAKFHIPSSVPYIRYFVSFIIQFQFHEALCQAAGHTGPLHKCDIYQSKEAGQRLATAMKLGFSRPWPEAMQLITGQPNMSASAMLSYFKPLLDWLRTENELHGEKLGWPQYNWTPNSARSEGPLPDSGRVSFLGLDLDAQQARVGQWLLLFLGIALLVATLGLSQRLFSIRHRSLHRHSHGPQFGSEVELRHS
# NEP, sequence (P08473 whole entry): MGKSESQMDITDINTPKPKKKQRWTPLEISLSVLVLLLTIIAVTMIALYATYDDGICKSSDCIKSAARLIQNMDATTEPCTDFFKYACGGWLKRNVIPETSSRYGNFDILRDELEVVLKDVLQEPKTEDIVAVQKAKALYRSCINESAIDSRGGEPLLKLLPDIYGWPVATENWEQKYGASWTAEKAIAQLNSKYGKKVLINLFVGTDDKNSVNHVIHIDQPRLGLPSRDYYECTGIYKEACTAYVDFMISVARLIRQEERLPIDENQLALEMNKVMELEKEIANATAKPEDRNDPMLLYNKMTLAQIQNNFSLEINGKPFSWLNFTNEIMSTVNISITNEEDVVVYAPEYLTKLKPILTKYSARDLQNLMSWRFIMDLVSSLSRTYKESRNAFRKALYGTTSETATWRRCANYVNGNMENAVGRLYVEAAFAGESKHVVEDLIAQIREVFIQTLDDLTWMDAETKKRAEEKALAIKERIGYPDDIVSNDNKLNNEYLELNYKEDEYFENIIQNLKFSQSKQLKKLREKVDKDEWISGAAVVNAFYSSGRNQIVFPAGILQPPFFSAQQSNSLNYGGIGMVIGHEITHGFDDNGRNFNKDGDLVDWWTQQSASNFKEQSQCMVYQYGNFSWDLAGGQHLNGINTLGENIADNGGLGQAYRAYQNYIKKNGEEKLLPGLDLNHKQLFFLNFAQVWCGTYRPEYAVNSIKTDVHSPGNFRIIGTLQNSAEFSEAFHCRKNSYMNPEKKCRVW
# T1 sequence (P12821 30-1306 H988K/H992K): as the sequence (P12821 30-1306 H390K/H394K) above, with K361H, K365H, H959K, H963K counted along it
smiles,measurement,setting,value
"C[C@H](NC(=O)[C@H](Cc1c[nH]c2ccccc12)NC(=O)[C@H](CCCCN)NC(=O)[C@@H]1CCC(=O)N1)C(=O)N1CCC[C@H]1C(=O)O [<E K W A P, Pyroglutamyl(<E)-Lysine(K)-tryptophane(W)-Alanine(A)-Proline (P)] ([pGlu]KWAP-OH)",Ki for the N site of the ACE,[1],in the μM range
same,selectivity for the C-site of the ACE,[2]; C site versus N site,not presenting a defined selectivity
same,Ki for the C site of the ACE,"[2]; pentapeptide, range stated in words",in the μM range
same,Ki,NEP,50 to 150 µM
same,increase in the duration of the hypotensive effect compared to bradykinin alone,[3],5 fold
same,potentiation of the hypotensive effect of bradykinin,[3],60%
same,concentrations that potentiate the contractile action of bradykinin on isolated guinea pig ileum,[4],15 to 300 nM
